From ChEMBL document CHEMBL4145636, “Izenamides A and B, Statine-Containing Depsipeptides, and an Analogue from a Marine Cyanobacterium” (J Nat Prod, 2018) come the findings set out here.

Calls of active or inactive are those of the source. The rule behind the calls is not given here. Some results are limits rather than exact numbers.

One assay deals with HeLa. The assay is described as follows: Growth inhibition of human HeLa cells up to 10 uM after 72 hrs by MTT assay. It counts as functional, cell-based. (Formazan colour is commonly taken as a measure of viable cells.)
The next assay relates to HL-60. The assay is described as follows: Growth inhibition of human HL60 cells up to 10 uM after 72 hrs by MTT assay. It counts as functional, cell-based.
For another assay, the system named is MCF7. The assay is described as follows: Growth inhibition of human MCF7 cells up to 10 uM after 72 hrs by MTT assay. It counts as functional, cell-based.
A further assay addresses Cathepsin D (Homo sapiens, UniProt P07339). The assay is described as follows: Inhibition of human cathepsin D using GKPILFFRLK(DNP)-D-RNH2) labeled MCA as substrate preincubated for 10 mins followed by substrate addition measured after 1 to 2 hrs by fluorometric method.

Sequence of Cathepsin D (P07339 65-162 limits assumed): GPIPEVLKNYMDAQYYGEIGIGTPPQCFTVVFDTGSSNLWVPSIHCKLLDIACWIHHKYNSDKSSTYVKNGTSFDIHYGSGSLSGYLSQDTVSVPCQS
Sequence of Cathepsin D (P07339 169-412 limits assumed): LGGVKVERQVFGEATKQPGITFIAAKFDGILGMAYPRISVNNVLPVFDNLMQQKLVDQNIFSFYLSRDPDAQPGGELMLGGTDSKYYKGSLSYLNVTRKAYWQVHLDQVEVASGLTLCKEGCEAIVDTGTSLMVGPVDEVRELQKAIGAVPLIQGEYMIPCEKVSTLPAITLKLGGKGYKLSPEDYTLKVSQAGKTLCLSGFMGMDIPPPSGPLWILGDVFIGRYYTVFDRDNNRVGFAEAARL

`CC[C@H](C)[C@H](NC(=O)[C@H](OC(=O)[C@@H](O)C(C)C)[C@@H](C)CC)C(=O)NCC(=O)N(C)[C@H](Cc1ccccc1)C(=O)N1CCC[C@H]1C(=O)OC`: the “growth inhibition (GI)” value in the assay with HeLa, in the assay with HL-60 and in the assay with MCF7 was “inactive” throughout. Besides, the half-inhibitory concentration (IC50) on Cathepsin D was more than 10000 nM.

Take `CC[C@H](C)[C@H](NC(=O)C[C@H](O)[C@H](CC(C)C)NC(=O)[C@H](OC(=O)[C@@H](O)C(C)C)[C@@H](C)CC)C(=O)N[C@@H](C)C(=O)N(C)[C@H](Cc1ccccc1)C(=O)N1CCC[C@H]1C(=O)OC`: the “growth inhibition (GI)” value in the assay with HeLa, in the assay on HL-60 and with MCF7 was “inactive” throughout. This compound returned a 50% inhibitory concentration (IC50) against Cathepsin D of 270 nM.

For `CC[C@H](C)[C@H](NC(=O)C[C@H](O)[C@H](CC(C)C)NC(=O)[C@H](OC(=O)[C@@H](O)C(C)C)C(C)C)C(=O)N[C@@H](C)C(=O)N(C)[C@H](Cc1ccccc1)C(=O)N1CCC[C@H]1C(=O)OC`, the “growth inhibition (GI)” value in the assay with HeLa, with HL-60 and with MCF7 was “inactive” throughout. Besides, the half-inhibitory concentration (IC50) against Cathepsin D was 380 nM.

By IC50 is commonly meant the concentration that inhibits the measured activity by half. Low values mean higher potency, high ones lower potency.
